Laboratory results: ChEMBL document CHEMBL3734723, “Synthesis and anticancer activity of 6-heteroarylcoumarins” (2015)

Columns and labels:
Format in all cases: functional
CCRF-CEM [1] = assay: Growth inhibition of human CCRF-CEM cells incubated for 48 hrs by sulforhodamine B assay; details: for CC50: read-out: LC50 (the source's name)
[2] = Growth inhibition of human HOP62 cells incubated for 48 hrs by sulforhodamine B assay; details: HOP-62, 48 h; for CC50: read-out: LC50 (the source's name)
NCI-H226 = assay: Growth inhibition of human NCI-H226 cells incubated for 48 hrs by sulforhodamine B assay; details: NCI-H226, 48 h; for CC50: read-out: LC50 (the source's name)
NCI-H322M = assay: Growth inhibition of human NCI-H322M cells incubated for 48 hrs by sulforhodamine B assay; details: for CC50: read-out: LC50 (the source's name)
NCI-H460 = assay: Growth inhibition of human NCI-H460 cells incubated for 48 hrs by sulforhodamine B assay; details: NCI-H460, 48 h; for CC50: read-out: LC50 (the source's name)
[3] = Growth inhibition of human HCT15 cells incubated for 48 hrs by sulforhodamine B assay; details: HCT-15, 48 h; for CC50: read-out: LC50 (the source's name)
[4] = Growth inhibition of human SNB19 cells incubated for 48 hrs by sulforhodamine B assay; details: SNB-19, 48 h; for CC50: read-out: LC50 (the source's name)
[5] = Growth inhibition of human LOXIMVI cells incubated for 48 hrs by sulforhodamine B assay; details: LOX IMVI; for CC50: read-out: LC50 (the source's name)
Malme-3M = assay: Growth inhibition of human MALME-3M cells incubated for 48 hrs by sulforhodamine B assay; details: for CC50: read-out: LC50 (the source's name)
M14 [6] = assay: Growth inhibition of human M14 cells incubated for 48 hrs by sulforhodamine B assay; details: M14, 48 h; for CC50: read-out: LC50 (the source's name)
SK-MEL-2 = assay: Growth inhibition of human SK-MEL-2 cells incubated for 48 hrs by sulforhodamine B assay; details: SK-MEL-2, 48 h; for CC50: read-out: LC50 (the source's name)
[7] = Growth inhibition of human IGROV1 cells incubated for 48 hrs by sulforhodamine B assay; details: IGROV-1, 48 h; for CC50: read-out: LC50 (the source's name)
[8] = Growth inhibition of human OVCAR5 cells incubated for 48 hrs by sulforhodamine B assay; details: OVCAR-5, 48 h; for CC50: read-out: LC50 (the source's name)
[9] = Growth inhibition of human OVCAR8 cells incubated for 48 hrs by sulforhodamine B assay; details: OVCAR-8, 48 h; for CC50: read-out: LC50 (the source's name)
A498 [10] = assay: Growth inhibition of human A498 cells incubated for 48 hrs by sulforhodamine B assay; details: A498, 48 h; for CC50: read-out: LC50 (the source's name)
ACHN = assay: Growth inhibition of human ACHN cells incubated for 48 hrs by sulforhodamine B assay; details: for CC50: read-out: LC50 (the source's name)
[11] = Growth inhibition of human RXF393 cells incubated for 48 hrs by sulforhodamine B assay; details: RXF 393, 48 h; for CC50: read-out: LC50 (the source's name)
[12] = Growth inhibition of human PC3 cells incubated for 48 hrs by sulforhodamine B assay; details: PC-3, 48 h; for CC50: read-out: LC50 (the source's name)
MDA-MB-231 = assay: Growth inhibition of human MDA-MB-231 cells incubated for 48 hrs by sulforhodamine B assay; details: MDA-MB-231, 48 h; for CC50: read-out: LC50 (the source's name)
T47D = assay: Growth inhibition of human T47D cells incubated for 48 hrs by sulforhodamine B assay; details: for CC50: read-out: LC50 (the source's name)
[13] = Growth inhibition of human colon cancer cells after 48 hrs by sulforhodamine B assay; details: Cancer cell lines; for CC50: read-out: LC50 (the source's name)
[14] = Growth inhibition of human melanoma cells after 48 hrs by sulforhodamine B assay; details: Melanoma cell; for CC50: read-out: LC50 (the source's name)
[15] = Growth inhibition of human ovarian cancer cells after 48 hrs by sulforhodamine B assay; details: Cancer cell lines; for CC50: read-out: LC50 (the source's name)
NCI-H522 = assay: Cytotoxicity against human NCI-H522 cells assessed as cell growth at 10 uM incubated for 48 hrs by sulforhodamine B assay; details: NCI-H522, 48 h, read-out: Activity
MDA-MB-468 = assay: Cytotoxicity against human MDA-MB-468 cells assessed as cell growth at 10 uM incubated for 48 hrs by sulforhodamine B assay; details: MDA-MB-468, 48 h, read-out: Activity
CCRF-CEM [16] = assay: Cytotoxicity against human CCRF-CEM cells assessed as cell growth at 10 uM incubated for 48 hrs by sulforhodamine B assay; details: read-out: Activity
[17] = Cytotoxicity against human HL-60(TB) cells assessed as cell growth at 10 uM incubated for 48 hrs by sulforhodamine B assay; details: HL-60, 48 h, read-out: Activity
[18] = Cytotoxicity against human HOP62 cells assessed as cell growth at 10 uM incubated for 48 hrs by sulforhodamine B assay; details: HOP-62, 48 h, read-out: Activity
[19] = Cytotoxicity against human COLO205 cells assessed as cell growth at 10 uM incubated for 48 hrs by sulforhodamine B assay; details: COLO 205, 48 h, read-out: Activity
[20] = Cytotoxicity against human SNB75 cells assessed as cell growth at 10 uM incubated for 48 hrs by sulforhodamine B assay; details: SNB-75, 48 h, read-out: Activity
U-251 = assay: Cytotoxicity against human U251 cells assessed as cell growth at 10 uM incubated for 48 hrs by sulforhodamine B assay; details: U-251, 48 h, read-out: Activity
M14 [21] = assay: Cytotoxicity against human M14 cells assessed as cell growth at 10 uM incubated for 48 hrs by sulforhodamine B assay; details: M14, 48 h, read-out: Activity
A498 [22] = assay: Cytotoxicity against human A498 cells assessed as cell growth at 10 uM incubated for 48 hrs by sulforhodamine B assay; details: A498, 48 h, read-out: Activity
SR = assay: Growth inhibition of human SR cells incubated for 48 hrs by sulforhodamine B assay
SK-MEL-28 = assay: Cytotoxicity against human SK-MEL-28 cells assessed as cell growth at 10 uM incubated for 48 hrs by sulforhodamine B assay; details: SK-MEL-28, 48 h, read-out: Activity

SMILES: Cc1cc(=O)oc2c(C)c(O)c(-c3ccnc(N)n3)cc12
- GI50 (CCRF-CEM [1]): 8.7 µM
- TGI (CCRF-CEM [1]): > 100 µM
- CC50 (CCRF-CEM [1]): > 100 µM
- GI50 [2]: 10.9 µM
- TGI [2]: > 100 µM
- CC50 [2]: > 100 µM
- GI50 (NCI-H226): 9.84 µM
- TGI (NCI-H226): > 100 µM
- CC50 (NCI-H226): > 100 µM
- GI50 (NCI-H322M): 59 µM
- TGI (NCI-H322M): > 100 µM
- CC50 (NCI-H322M): > 100 µM
- GI50 (NCI-H460): 2.44 µM
- TGI (NCI-H460): > 100 µM
- CC50 (NCI-H460): > 100 µM
- GI50 [3]: 8.45 µM
- TGI [3]: > 100 µM
- CC50 [3]: > 100 µM
- GI50 [4]: 35.8 µM
- TGI [4]: > 100 µM
- CC50 [4]: > 100 µM
- GI50 [5]: 4.44 µM
- TGI [5]: > 100 µM
- CC50 [5]: > 100 µM
- GI50 (Malme-3M): > 100 µM
- TGI (Malme-3M): > 100 µM
- CC50 (Malme-3M): > 100 µM
- GI50 (M14 [6]): > 100 µM
- TGI (M14 [6]): > 100 µM
- CC50 (M14 [6]): > 100 µM
- GI50 (SK-MEL-2): 88.1 µM
- TGI (SK-MEL-2): > 100 µM
- CC50 (SK-MEL-2): > 100 µM
- GI50 [7]: 15.8 µM
- TGI [7]: > 100 µM
- CC50 [7]: > 100 µM
- GI50 [8]: > 100 µM
- TGI [8]: > 100 µM
- CC50 [8]: > 100 µM
- GI50 [9]: 6.95 µM
- TGI [9]: > 100 µM
- CC50 [9]: > 100 µM
- GI50 (A498 [10]): 1.44 µM
- TGI (A498 [10]): > 100 µM
- CC50 (A498 [10]): > 100 µM
- GI50 (ACHN): 2.39 µM
- TGI (ACHN): > 100 µM
- CC50 (ACHN): > 100 µM
- GI50 [11]: 4.7 µM
- TGI [11]: 59.9 µM
- CC50 [11]: > 100 µM
- GI50 [12]: > 100 µM
- TGI [12]: > 100 µM
- CC50 [12]: > 100 µM
- GI50 (MDA-MB-231): > 100 µM
- TGI (MDA-MB-231): > 100 µM
- CC50 (MDA-MB-231): > 100 µM
- GI50 (T47D): 5 µM
- TGI (T47D): > 100 µM
- CC50 (T47D): > 100 µM
- GI50 [13]: 32.7 µM
- TGI [13]: > 100 µM
- CC50 [13]: > 100 µM
- GI50 [14]: 68.1 µM
- TGI [14]: > 100 µM
- CC50 [14]: > 100 µM
- GI50 [15]: 42.5 µM
- TGI [15]: > 100 µM
- CC50 [15]: > 100 µM
- growth at 10 µM (NCI-H522): 47%
- growth at 10 µM (MDA-MB-468): 40.4%
- growth at 10 µM (CCRF-CEM [16]): -36.8%
- growth at 10 µM [17]: -0.65%
- growth at 10 µM [18]: 67.8%
- growth at 10 µM [19]: 46.9%
- growth at 10 µM [20]: 33.8%
- growth at 10 µM (U-251): 56.3%
- growth at 10 µM (M14 [21]): 68.6%
- growth at 10 µM (A498 [22]): 42.9%

SMILES: Cc1cc(=O)oc2c(C)c(O)c(-c3cc4ccc(F)cc4[nH]3)cc12
- GI50 (CCRF-CEM [1]): 4.42 µM
- TGI (CCRF-CEM [1]): 47.7 µM
- CC50 (CCRF-CEM [1]): > 100 µM
- GI50 (SR): 3.24 µM
- TGI (SR): 16.9 µM
- CC50 (SR; read-out: LC50 (the source's name)): > 100 µM
- GI50 [2]: 2.98 µM
- TGI [2]: 15.9 µM
- CC50 [2]: 45.4 µM
- GI50 (NCI-H226): 3.34 µM
- TGI (NCI-H226): 22.1 µM
- CC50 (NCI-H226): > 100 µM
- GI50 (NCI-H322M): 3.23 µM
- TGI (NCI-H322M): 13.1 µM
- CC50 (NCI-H322M): 88.3 µM
- GI50 (NCI-H460): 2.82 µM
- TGI (NCI-H460): 10.5 µM
- CC50 (NCI-H460): 66.6 µM
- GI50 [3]: 3.09 µM
- TGI [3]: 13.6 µM
- CC50 [3]: 63.1 µM
- CC50 [4]: > 100 µM
- GI50 [5]: 2.51 µM
- TGI [5]: 10.6 µM
- CC50 [5]: 37.3 µM
- GI50 (Malme-3M): 1.95 µM
- TGI (Malme-3M): 7.32 µM
- CC50 (Malme-3M): 50.2 µM
- GI50 (M14 [6]): 3.29 µM
- TGI (M14 [6]): 12.7 µM
- CC50 (M14 [6]): 36.7 µM
- GI50 (SK-MEL-2): 3.12 µM
- TGI (SK-MEL-2): 7.34 µM
- CC50 (SK-MEL-2): 41.5 µM
- GI50 [7]: 2.3 µM
- TGI [7]: 13.7 µM
- CC50 [7]: 62.8 µM
- GI50 [8]: 3.34 µM
- TGI [8]: 16.7 µM
- CC50 [8]: 49.7 µM
- GI50 [9]: 3.88 µM
- TGI [9]: 24 µM
- CC50 [9]: > 100 µM
- GI50 (A498 [10]): 1.93 µM
- TGI (A498 [10]): 6.21 µM
- CC50 (A498 [10]): 25.8 µM
- GI50 (ACHN): 2.64 µM
- TGI (ACHN): 10.6 µM
- CC50 (ACHN): 74.7 µM
- GI50 [11]: 3.91 µM
- TGI [11]: 14.7 µM
- CC50 [11]: 42.3 µM
- GI50 [12]: 2.64 µM
- TGI [12]: 10 µM
- CC50 [12]: > 100 µM
- GI50 (MDA-MB-231): 2.49 µM
- TGI (MDA-MB-231): 10.2 µM
- CC50 (MDA-MB-231): > 100 µM
- GI50 (T47D): 2.39 µM
- TGI (T47D): 22.1 µM
- CC50 (T47D): > 100 µM
- GI50 [13]: 5.38 µM
- TGI [13]: 16.2 µM
- CC50 [13]: 48.1 µM
- GI50 [14]: 2.64 µM
- TGI [14]: 9.71 µM
- CC50 [14]: 30.8 µM
- GI50 [15]: 3.08 µM
- TGI [15]: 17.2 µM
- CC50 [15]: 73.6 µM
- growth at 10 µM (NCI-H522): 15%
- growth at 10 µM (MDA-MB-468): 16.7%
- growth at 10 µM (CCRF-CEM [16]): 43.1%
- growth at 10 µM [17]: 27.9%
- growth at 10 µM [20]: 68.8%
- growth at 10 µM (U-251): 27.9%
- growth at 10 µM (M14 [21]): 52.3%
- growth at 10 µM (A498 [22]): 52.5%
- growth at 10 µM (SK-MEL-28): 55.3%
